System: SLC5A8 silenced colon cancer cell lines
Test: RT-PCR detection of SLC5A8 transcript after 5-azacytidine treatment
Format: cell-based, human
Conditions: 5-azacytidine 1.5 μg/ml, 24 h on day 2 and day 5
Experimental: Amplification and Sequencing of SLC5A8. The primers used for RT-PCR assay of a SLC5A8 fragment are 5′-TCCGAGGTCTACCGTTTTG-3′, and 5′-GGGCA GGGGC ATAAA TAAC-3′. The PCR parameters were 35 cycles of 95° C. (45s), 54° C. (45s), 72° C. (60s), 72° C. (10 min), and 4° C. to cool. The full length SLC5A8 ORF was amplified using primers: 5′TCCGGGATAAGAAGTGCG-3′ and 5′-[…]-3′. GC-rich cDNA polymerase kit (Clonetech) was used and PCR parameters were 35 cycles of 95° C. (45s), 62° C. (45s), 72° C. (90s), 72° C. (10 min), and 4° C. to cool. Sequencing primers were: 5′-TTTGT GGTGGTCA TCAGCG-3′,5′-GGGCAGGGGCATAAATAAC-3′,5′-AGGCTGTG GTGATGCAAGGT-3′,5′-TTAATGCCTTAGCAGCAG-3′, and 5′-CCTCCACTT CCTGAGAGAAC-3′.
5-Azacytidine Treatment. The treatment was performed as described previously (Veigl et al., 1998, Proc Natl Acad Sci USA 95: 8698-8702). Briefly, cells were treated for 24 h on day 2 and day 5 with 5-azacytidine (Sigma) at 1.5 μg/ml. The medium was changed 24 h after addition of the 5-azacytidine (i.e., on day 3 and day 6).

SMILES: Nc1ncn([C@@H]2O[C@H](CO)[C@@H](O)[C@H]2O)c(=O)n1 [5-azacytidine]
- reactivation of SLC5A8 expression (cell lines reactivated of cell lines tested): 6 of 8
